System: MCF-7 breast CSCs
Test: Inhibition of mammosphere-forming activity of MCF-7 breast CSCs
Assay type: cell-based, human
Settings: treated for 5 days in mammosphere media, read-out: IC-50 for blocking CSC propagation (mammosphere-forming activity)
Description: The black bars show 2,4-dichlorobenzyl-TPP; the inclined bars show 1-naphthylmethyl-TPP; the dotted bars show 3-methylbenzyl-TPP; the unshaded bars show 2-chlorobenzyl-TPP; and the horizontal lined bars show 2-butene-1,4-bis-TPP. […] Data are represented as mean+/−SEM.

IC50: < 500 nM
Compound: C(=CC[P+](c1ccccc1)(c1ccccc1)c1ccccc1)C[P+](c1ccccc1)(c1ccccc1)c1ccccc1 [2-butene-1,4-bis-TPP]

Source: US11497759B2, “Repurposcins: targeted inhibitors of mitochondrial biogenesis for eradicating cancer stem cells” (LUNELLA BIOTECH, INC., priority 2017, dated 2022)
